Literature values as cited in US7838696B2, “Hydroconversion process employing multi-metallic catalysts and method for making thereof” (Chevron U. S. A. Inc., priority 2007, dated 2010).

Test system: rats
Settings: rat, in vivo, po

## O=CC(=O)O [glyoxylic, glyoxylic acid]
  LD50: 3000 mg/kg
